Measurements from paper PMC11779924 (Nature Communications, 2025).

What was measured:
[1] = tested on: beagles with blood clot defect (heparin); parameters: species or system beagle; details: dog, in vivo
[2] = tested on: beagles; assay: Beagle BCD model: overall toxicity incl. cardiotoxicity and organ H&E
[3] = tested on: BCD rats; details: rat, in vivo
[4] = tested on: beagles with blood clot defect (heparin); assay: Beagle tooth extraction BCD model: coagulation time; assay type: in vivo; details: treated immediately after tooth extraction, n = 7
[5] = tested on: healthy SD rats; details: subcutaneous implantation, n = 6
[6] = tested on: hypertensive rats with blood clot defect (BCD); assay: Rat BCD model: immunofluorescent staining of CD73&Fak, Runx2, Alp; assay type: in vivo; details: BCgel vs Ctrl, n = 6
[7] = tested on: hypertensive rats with blood clot defect (BCD); assay: Rat incisor extraction BCD model: coagulation time; assay type: in vivo; details: treated immediately after tooth extraction, n = 12
[8] = tested on: hypertensive rats with blood clot defect (BCD); assay type: in vivo, rat; details: micro-CT

(RADA)4GSVLGYIQIR [BCgel]
elevation in Tb.N compared to the Ctrl group [1]: 56% | enhancement in BMD compared to the Ctrl group [1]: 105% | increase in BV/TV compared to the Ctrl group [1]: 143% | reduction in Tb.Sp compared to the Ctrl group [1]: 60% | immunotoxicity, hematotoxicity, hepatotoxicity, nephrotoxicity, cardiotoxicity ([2]; BCgel for two months, n = 4): did not result in any observed immunotoxicity | physiological toxicity (hematotoxicity, hepatotoxicity, nephrotoxicity, cardiotoxicity) ([2]; five months after tooth extraction, n = 3): no signs of physiological toxicity | increase in bone mineral density (BMD) [3]: 39% | reduction in trabecular separation (Tb.Sp) [3]: 50% | reduction in coagulation time vs gelform (Ctrl) [4]: 69% | hematological parameters [5]: nor did they have any impact on hematological parameters | hepatic or renal function [5]: neither BCgel nor gelform induced any hepatic or renal abnormalities | increase in CD73+&Fak+ double positive cells ([6]; one-month post-treatment): 15 fold | increase in CD73+&Fak+ double positive cells ([6]; one-week post-treatment): 31 fold | reduction in coagulation time compared to gelform [7]: 55% | osteogenic effects of mechanically unloaded BCgel ([8]; 0.5% BCgel vs gelform (Ctrl), n = 3): negligible osteogenic effects | decrease in Tb.Sp compared to the Ctrl group ([8]; 1 week post-treatment, n = 6): 47% | increase in BMD compared to the Ctrl group ([8]; 1 week post-treatment, n = 6): 73% | increase in BV/TV compared to the Ctrl group ([8]; 1 week post-treatment, n = 6): 84%
